Measurements as given in patent publication US5945454A, “2-(4-substituted)-benzylamino-2-methyl-propanamide derivatives” (Pharmacia & Upjohn, S.P.A., priority 1995, dated 1999).

Tested on: maximal electroshock seizures (MES)
Experiment: antagonism of maximal electroshock seizures (MES) after oral administration
Type: in vivo
Details: limits in parentheses, read-out: MES-ED50 (effective dose in 50% of treated animals)
Protocol: The activity on the CNS of the compounds of the invention was evaluated on the basis of pharmacological methods, such as, for example, the antagonism of convulsions and lethality induced by intravenous injection of bicuculline in mice (Antiepileptic Drugs, D. M. Woodbury et al. eds., 2nd edition, Raven Press, New York, 1982), or the antagonism of maximal electroshock seizures (MES) (Woodbury, L. A. and Davenport, V. D., Arch. Int. Pharmacodyn. Ther. 92; 97-104, 1952).
The following table summarizes the activity data obtained by testing in the MES test a representative group of compounds of the invention in comparison with the respective 2-desmethyl related compounds known from WO 90/14334.
ED50 means effective dose in 50% of treated animals after per os (po) administration.

SMILES | ED50
C[C@H](NCc1ccc(OCc2ccccc2F)cc1)C(N)=O [FCE 26742A, (S)-2-(4-(2-fluorobenzyloxy)benzylamino) propanamide, methanesulfonate] | 7.13 mg/kg
C[C@H](NCc1ccc(OCc2cccc(Cl)c2)cc1)C(N)=O [FCE 26193A, (S)-2-(4-(3-chlorobenzyloxy)benzylamino) propanamide, methanesulfonate] | 9.41 mg/kg
CC(C)(NCc1ccc(OCc2cccc(F)c2)cc1)C(N)=O [FCE 29088A, 2-[4-(3-fluorobenzyloxy)benzylamino]-2-methyl-propanamide, methanesulfonate] | 4.4 mg/kg
CC(C)(NCc1ccc(OCc2ccccc2F)cc1)C(N)=O.CS(=O)(=O)O [FCE 29484A, 2-[4-(2-fluorobenzyloxy)benzylamino]-2-methyl-propanamide, methanesulfonate] | 3.1 mg/kg
C[C@H](NCc1ccc(OCc2cccc(F)c2)cc1)C(N)=O [FCE 26743A, (S)-2-(4-(3-fluorobenzyloxy)benzylamino) propanamide, methanesulfonate] | 8.2 mg/kg
CC(C)(NCc1ccc(SCc2ccccc2)cc1)C(N)=O [FCE 29482A, 2-[(4-benzylsulfanyl)benzylamino]-2-methyl-propanamide, methanesulfonate] | 3.12 mg/kg
CC(C)(NCc1ccc(OCc2cccc(Cl)c2)cc1)C(N)=O [FCE 29644A, 2-[4-(3-chlorobenzyloxy)benzylamino]-2-methyl-propanamide, methanesulfonate] | 3.88 mg/kg
CNC(=O)[C@H](C)NCc1ccc(OCc2cccc(F)c2)cc1.CS(=O)(=O)O [FCE 28657A, (S)-2-(4-(3-fluorobenzyloxy)benzylamino)-N-methylpropanamide, methanesulfonate] | 9.35 mg/kg
CNC(=O)C(C)(C)NCc1ccc(OCc2cccc(F)c2)cc1.CS(=O)(=O)O [FCE 29647A, 2-[4-(3-fluorobenzyloxy)benzylamino]-2-methyl-N-methyl-propanamide, methanesulfonate] | 4.34 mg/kg
C[C@H](NCc1ccc(OCc2ccc(F)cc2)cc1)C(N)=O [FCE 26998A, (S)-2-(4-(4-fluorobenzyloxy)benzylamino) propanamide, methanesulfonate] | 16.3 mg/kg
C[C@H](NCc1ccc(SCc2ccccc2)cc1)C(N)=O [FCE 26727A, (S)-2-(4-benzylsulfanyl)benzylamino) propanamide, methanesulfonate] | 12.7 mg/kg
CC(C)(NCc1ccc(OCc2ccc(F)cc2)cc1)C(N)=O.CS(=O)(=O)O [FCE 29645A, 2-[4-(4-fluorobenzyloxy)benzylamino]-2-methyl-propanamide, methanesulfonate] | 6.58 mg/kg
